# Data taken from US20100113337A1, “METHOD FOR REDUCING INCIDENCE OR RATE OF DEVELOPMENT OF SKIN CANCERS AND RELATED CONDITIONS” (Clinuvel Pharmaceuticals Limited, priority 2006, published 2010).
# Legend:
# [1] = test system: Hairless albino Sh:HR-1 mice; assay: UVB induced skin carcinogenesis in hairless mice (tumour multiplicity); assay type: in vivo, mouse; conditions: one minimal erythemal dose of UVB daily for 10 weeks; tumours counted at weeks 11, 13, 14, 15, 16 and 17; versus control group
# Excerpt: Hairless mouse strains such as the HRA-Skh-1 mice are a standard mouse model used to study solar damage to human skin (Canfield et al., 1985—reference 1). Exposure of the hairless mouse to UV light mimics “sunburn” in humans. With continued irradiation treatment, this on-going damage is reflected in progressive thickening of the skin which histologically mimics hyperkeratinization and elastosis associated with photoaging and chronically sun-exposed skin in humans. Pre-malignant tumours begin to appear within several weeks of completion of the ultra violet light regimen. Over an ensuing time period there is a progressive development of pre-malignant and malignant tumours, the histology and behaviour of which closely mimic keratoses and pre-malignant and malignant skin cancers that develop in humans in response to sunlight.
# Hairless albino Sh:HR-1 mice are divided into two groups each containing 20 animals. The first group receiving Nle^4-D-Phe^7-alpha-MSH, and the second group being a control group. Both groups receive one minimal erythemal dose of UVB light to stimulate the toxic effect of sunlight on the skin daily for 10 weeks. At weeks 11, 13, 14, 15, 16 and 17 the number of skin tumours on each animal is measured and calculated as tumour multiplicity, i.e. average number of tumours per mouse.
# human volunteers = conditions: cited from earlier work
substance,measurement,setting,value
"[Nle^4,D-Phe^7]-alpha-MSH [Nle^4-D-Phe^7-α-MSH]","protection against UVB induced carcinogenesis (tumour multiplicity, average number of tumours per mouse)",[1],Protection against UVB induced carcinogenesis is observed
same,induction of melanin synthesis,human volunteers,can induce melanin synthesis
